Test results reported in ChEMBL document CHEMBL1201862, “PubChem BioAssay data set” (2004).
Active and inactive are the calls of the source.

Legend:
[1] = molecular target: Heat shock protein HSP 90-alpha (Homo sapiens, UniProt P07900); type: functional, organism-based
[2] = molecular target: Sphingosine 1-phosphate receptor 1 (Homo sapiens, UniProt P21453); type: functional;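 further: Tango beta-arrestin reporter U2OS cells stimulated with S1P near its EC80; inhibitor potency meaning antagonism of receptor activation by the natural agonist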
Vero = assay: viability of Vero cells under compound – cytotoxicity control for flavivirus capping enzyme inhibitors (AID 588742); type: functional; conditions: Chlorocebus sabaeus
[3] = general cell-killing toxicity readout – plate reader, dry powder samples, cytotoxicity control for PAX8 inhibitor project, dose response (AID 743021); type: functional, cell-based
Fatty acid synthase = Fatty acid synthase (Homo sapiens, UniProt P49327); assay: inhibition of human FAS-TE enzyme activity – biochemical, endpoint fluorescence intensity, uHTS hits, dose response (AID 624327); type: functional;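 further: fluorescence from hydrolysis of an O-methyl fluorescein acyl ester substrate by the enzyme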
Hexokinase HKDC1 = molecular target: T1, Hexokinase HKDC1 (Homo sapiens, UniProt Q2TB90); assay: inhibition of HKDC1 glucose phosphorylation – biochemical, W721R variant, dose response (AID 504729); type: functional
T1 sequence (Q2TB90 whole entry): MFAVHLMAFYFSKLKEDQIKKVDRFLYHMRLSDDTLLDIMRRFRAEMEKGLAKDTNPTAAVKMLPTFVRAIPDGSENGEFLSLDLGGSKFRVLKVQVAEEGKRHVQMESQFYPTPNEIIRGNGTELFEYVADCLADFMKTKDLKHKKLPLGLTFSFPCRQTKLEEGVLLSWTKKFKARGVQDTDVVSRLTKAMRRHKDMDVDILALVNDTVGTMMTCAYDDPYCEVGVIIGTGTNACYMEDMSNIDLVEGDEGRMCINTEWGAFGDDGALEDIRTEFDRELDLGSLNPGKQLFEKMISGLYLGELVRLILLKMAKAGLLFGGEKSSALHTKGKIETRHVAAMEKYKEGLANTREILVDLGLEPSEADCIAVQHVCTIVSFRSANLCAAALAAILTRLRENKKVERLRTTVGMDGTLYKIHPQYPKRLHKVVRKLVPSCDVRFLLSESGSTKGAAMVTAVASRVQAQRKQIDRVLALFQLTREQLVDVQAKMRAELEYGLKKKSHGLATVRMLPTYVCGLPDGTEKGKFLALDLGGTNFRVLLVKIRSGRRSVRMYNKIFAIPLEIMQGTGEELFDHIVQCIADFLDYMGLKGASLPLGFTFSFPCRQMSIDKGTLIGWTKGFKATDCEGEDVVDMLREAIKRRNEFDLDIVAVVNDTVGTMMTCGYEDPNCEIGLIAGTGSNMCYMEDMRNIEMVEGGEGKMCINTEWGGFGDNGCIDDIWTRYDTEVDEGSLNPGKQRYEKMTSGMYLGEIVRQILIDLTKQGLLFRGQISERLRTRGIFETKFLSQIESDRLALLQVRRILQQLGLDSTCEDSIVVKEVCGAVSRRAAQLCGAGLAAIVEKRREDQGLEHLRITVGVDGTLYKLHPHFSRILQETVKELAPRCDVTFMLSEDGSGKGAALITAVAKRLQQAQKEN

Bcl-2-like protein 10 = molecular target: T2, Bcl-2-like protein 10 (Homo sapiens, UniProt Q9HD36); assay: Bcl-B/TR3 peptide binding disruption – biochemical, fluorescence polarization, FITC-TR3 peptide, selectivity assay for Bfl-1 inhibitor project, primary screen (AID 748);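 further: fluorescence polarization from a fluorescein-labelled TR3 peptide binding purified Bcl-B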
T2 sequence (Q9HD36 whole entry): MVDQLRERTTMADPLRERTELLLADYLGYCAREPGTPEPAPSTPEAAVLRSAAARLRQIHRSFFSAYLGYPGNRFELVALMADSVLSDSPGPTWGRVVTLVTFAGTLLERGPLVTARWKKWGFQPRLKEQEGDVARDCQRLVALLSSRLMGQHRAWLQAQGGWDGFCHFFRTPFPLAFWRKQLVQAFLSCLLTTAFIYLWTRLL

Aspartyl aminopeptidase = Aspartyl aminopeptidase (Plasmodium falciparum 3D7, UniProt Q8I2J3)
Aspartyl aminopeptidase, sequence (Q8I2J3 whole entry): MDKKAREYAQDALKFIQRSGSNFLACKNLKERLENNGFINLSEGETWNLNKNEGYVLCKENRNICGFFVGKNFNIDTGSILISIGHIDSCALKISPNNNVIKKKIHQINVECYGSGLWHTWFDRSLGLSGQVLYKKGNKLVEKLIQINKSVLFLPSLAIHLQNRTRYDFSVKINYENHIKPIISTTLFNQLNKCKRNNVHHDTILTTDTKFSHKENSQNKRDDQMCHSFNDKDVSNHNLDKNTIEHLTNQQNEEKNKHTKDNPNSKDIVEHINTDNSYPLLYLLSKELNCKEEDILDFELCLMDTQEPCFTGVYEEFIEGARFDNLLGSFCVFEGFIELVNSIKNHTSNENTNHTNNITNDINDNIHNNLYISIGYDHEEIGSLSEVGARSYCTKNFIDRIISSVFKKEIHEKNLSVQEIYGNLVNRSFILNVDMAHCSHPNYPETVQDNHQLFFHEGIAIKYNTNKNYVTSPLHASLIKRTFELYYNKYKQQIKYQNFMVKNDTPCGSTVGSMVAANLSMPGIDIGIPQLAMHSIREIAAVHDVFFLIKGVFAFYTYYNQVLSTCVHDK

[4] = molecular target: Rho-associated protein kinase 1 (Homo sapiens, UniProt Q13464); type: functional;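 further: measured within a broad kinome-wide panel profiling many kinases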
Rho-associated protein kinase 1, sequence (Q13464 whole entry): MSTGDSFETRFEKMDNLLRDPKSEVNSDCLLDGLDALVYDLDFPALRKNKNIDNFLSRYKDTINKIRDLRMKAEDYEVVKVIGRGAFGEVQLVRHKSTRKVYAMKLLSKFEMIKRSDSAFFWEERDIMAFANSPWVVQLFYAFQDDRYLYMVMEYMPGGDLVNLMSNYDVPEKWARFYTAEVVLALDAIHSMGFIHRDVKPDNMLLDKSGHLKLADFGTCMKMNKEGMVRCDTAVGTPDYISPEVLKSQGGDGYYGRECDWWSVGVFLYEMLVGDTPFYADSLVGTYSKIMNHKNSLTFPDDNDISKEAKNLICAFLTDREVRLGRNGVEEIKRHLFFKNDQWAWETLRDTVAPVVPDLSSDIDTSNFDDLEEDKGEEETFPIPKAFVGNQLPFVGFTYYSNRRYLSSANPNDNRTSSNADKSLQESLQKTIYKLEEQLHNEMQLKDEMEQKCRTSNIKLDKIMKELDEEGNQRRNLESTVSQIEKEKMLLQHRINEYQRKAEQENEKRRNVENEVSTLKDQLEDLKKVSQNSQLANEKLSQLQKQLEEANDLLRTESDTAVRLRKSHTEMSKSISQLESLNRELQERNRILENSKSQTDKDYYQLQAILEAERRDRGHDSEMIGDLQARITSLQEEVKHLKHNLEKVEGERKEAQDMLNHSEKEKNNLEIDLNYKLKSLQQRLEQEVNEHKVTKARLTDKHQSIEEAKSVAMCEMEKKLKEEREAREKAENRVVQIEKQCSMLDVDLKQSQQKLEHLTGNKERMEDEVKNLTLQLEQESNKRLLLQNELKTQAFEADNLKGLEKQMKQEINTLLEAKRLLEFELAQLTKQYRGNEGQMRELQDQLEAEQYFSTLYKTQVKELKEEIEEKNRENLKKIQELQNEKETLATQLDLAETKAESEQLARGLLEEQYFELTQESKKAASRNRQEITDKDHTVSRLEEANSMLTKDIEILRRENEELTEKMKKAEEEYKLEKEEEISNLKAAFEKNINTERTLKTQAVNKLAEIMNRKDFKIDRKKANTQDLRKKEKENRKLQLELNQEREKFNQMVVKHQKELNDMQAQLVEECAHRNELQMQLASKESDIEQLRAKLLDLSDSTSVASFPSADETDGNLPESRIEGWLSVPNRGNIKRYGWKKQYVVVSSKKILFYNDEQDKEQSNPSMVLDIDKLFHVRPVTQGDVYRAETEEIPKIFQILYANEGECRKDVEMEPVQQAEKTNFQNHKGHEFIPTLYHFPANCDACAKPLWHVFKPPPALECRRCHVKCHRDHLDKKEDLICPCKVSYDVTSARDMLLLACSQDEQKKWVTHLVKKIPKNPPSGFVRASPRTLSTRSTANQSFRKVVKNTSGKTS

[5] = molecular target: Serine/threonine-protein kinase MRCK alpha (Homo sapiens, UniProt Q5VT25); type: functional
[6] = molecular target: Vascular endothelial growth factor receptor 2 (Homo sapiens, UniProt P35968); type: functional
Vascular endothelial growth factor receptor 2, sequence (P35968 whole entry): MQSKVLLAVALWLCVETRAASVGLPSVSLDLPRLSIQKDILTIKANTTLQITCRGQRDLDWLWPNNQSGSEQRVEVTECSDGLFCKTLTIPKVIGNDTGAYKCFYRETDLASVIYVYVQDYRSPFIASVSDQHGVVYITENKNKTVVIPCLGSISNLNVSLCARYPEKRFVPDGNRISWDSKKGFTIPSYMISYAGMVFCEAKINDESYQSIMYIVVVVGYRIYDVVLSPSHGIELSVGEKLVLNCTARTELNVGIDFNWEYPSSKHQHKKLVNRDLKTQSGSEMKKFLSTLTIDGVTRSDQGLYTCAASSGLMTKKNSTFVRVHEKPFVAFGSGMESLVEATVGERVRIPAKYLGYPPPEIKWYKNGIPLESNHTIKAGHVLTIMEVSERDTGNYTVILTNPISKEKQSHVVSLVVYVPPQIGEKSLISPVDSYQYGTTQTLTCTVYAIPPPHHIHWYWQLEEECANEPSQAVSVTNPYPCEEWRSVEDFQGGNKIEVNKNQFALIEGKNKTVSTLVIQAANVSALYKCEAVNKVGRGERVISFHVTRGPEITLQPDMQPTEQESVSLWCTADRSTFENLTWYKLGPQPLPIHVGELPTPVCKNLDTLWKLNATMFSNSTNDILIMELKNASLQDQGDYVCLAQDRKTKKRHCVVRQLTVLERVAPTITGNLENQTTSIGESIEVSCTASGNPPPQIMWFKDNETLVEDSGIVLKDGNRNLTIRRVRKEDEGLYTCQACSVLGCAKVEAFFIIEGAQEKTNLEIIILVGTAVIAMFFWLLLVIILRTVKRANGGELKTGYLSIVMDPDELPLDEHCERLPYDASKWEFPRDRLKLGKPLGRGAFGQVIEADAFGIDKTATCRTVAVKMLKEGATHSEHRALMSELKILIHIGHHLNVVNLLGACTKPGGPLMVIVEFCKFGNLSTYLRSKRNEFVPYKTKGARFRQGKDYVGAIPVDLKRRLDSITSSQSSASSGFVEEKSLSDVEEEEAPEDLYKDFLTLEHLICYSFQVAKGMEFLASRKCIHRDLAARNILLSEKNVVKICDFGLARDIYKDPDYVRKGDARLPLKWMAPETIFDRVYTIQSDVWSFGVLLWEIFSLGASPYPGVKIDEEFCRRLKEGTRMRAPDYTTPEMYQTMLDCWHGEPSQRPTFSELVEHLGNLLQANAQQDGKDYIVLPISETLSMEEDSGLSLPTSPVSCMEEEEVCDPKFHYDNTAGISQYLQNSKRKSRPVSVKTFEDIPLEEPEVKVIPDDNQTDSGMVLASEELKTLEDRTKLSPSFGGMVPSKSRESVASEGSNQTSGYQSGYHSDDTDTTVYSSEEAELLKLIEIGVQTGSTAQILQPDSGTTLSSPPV

[7] = molecular target: Insulin-like growth factor 1 receptor (Homo sapiens, UniProt P08069); assay: Navigating the Kinome. Panel member name: IGF1R; type: functional
Ephrin type-A receptor 2 = Ephrin type-A receptor 2 (Homo sapiens, UniProt P29317); type: functional;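 further: EPHA2 tested as one member of a kinome-wide kinase panel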
[8] = molecular target: Serine/threonine-protein kinase 17A (Homo sapiens, UniProt Q9UEE5); type: functional
[9] = molecular target: Macrophage colony-stimulating factor 1 receptor (Homo sapiens, UniProt P07333); type: functional;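 further: value comes from the Navigating the Kinome screening panel, CSF1R member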
[10] = molecular target: Cell division cycle 7-related protein kinase (Homo sapiens, UniProt O00311); type: functional;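 further: value obtained from a kinome-wide kinase panel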
[11] = molecular target: Protein kinase C delta type (Homo sapiens, UniProt Q05655); type: functional
Protein kinase C delta type, sequence (Q05655 whole entry): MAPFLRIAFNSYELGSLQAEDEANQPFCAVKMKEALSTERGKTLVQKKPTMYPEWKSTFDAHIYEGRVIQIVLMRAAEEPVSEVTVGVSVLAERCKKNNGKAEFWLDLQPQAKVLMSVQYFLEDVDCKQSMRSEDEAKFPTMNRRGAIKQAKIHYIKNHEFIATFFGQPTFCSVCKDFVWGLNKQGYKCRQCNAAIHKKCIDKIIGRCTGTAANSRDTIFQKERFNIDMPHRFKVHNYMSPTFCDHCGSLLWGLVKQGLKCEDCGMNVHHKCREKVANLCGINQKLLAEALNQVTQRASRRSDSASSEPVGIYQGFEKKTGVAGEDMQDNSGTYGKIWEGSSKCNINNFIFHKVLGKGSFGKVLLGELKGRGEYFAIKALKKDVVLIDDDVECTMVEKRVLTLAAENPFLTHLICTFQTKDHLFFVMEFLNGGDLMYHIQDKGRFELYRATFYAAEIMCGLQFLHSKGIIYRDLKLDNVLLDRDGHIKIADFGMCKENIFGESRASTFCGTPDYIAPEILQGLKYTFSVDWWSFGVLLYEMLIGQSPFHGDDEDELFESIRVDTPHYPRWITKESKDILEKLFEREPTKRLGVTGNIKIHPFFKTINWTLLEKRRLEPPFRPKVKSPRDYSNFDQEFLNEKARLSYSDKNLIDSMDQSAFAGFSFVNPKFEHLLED

[12] = molecular target: Rho-associated protein kinase 2 (Homo sapiens, UniProt O75116); type: functional
[13] = molecular target: Tyrosine-protein kinase SYK (Homo sapiens, UniProt P43405); type: functional
[14] = molecular target: Hepatocyte growth factor receptor (Homo sapiens, UniProt P08581); type: functional;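 further: kinase panel profiling across the kinome, with MET as the panel member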
[15] = molecular target: Tyrosine-protein kinase BTK (Homo sapiens, UniProt Q06187); type: functional
[16] = molecular target: MAP kinase-activated protein kinase 5 (Homo sapiens, UniProt Q8IW41); type: functional;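 further: measured as one member of a kinome panel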
[17] = molecular target: Proto-oncogene tyrosine-protein kinase ROS (Homo sapiens, UniProt P08922); type: functional;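 further: ROS1 tested as one member of a kinome-wide kinase panel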
[18] = molecular target: Tyrosine-protein kinase Blk (Homo sapiens, UniProt P51451); type: functional;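 further: obtained as one member of a kinome-wide kinase assay panel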
[19] = molecular target: Tyrosine-protein kinase Fer (Homo sapiens, UniProt P16591); type: functional;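 further: FER tested as one member of a kinome panel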
[20] = molecular target: Tyrosine-protein kinase ABL1 (Homo sapiens, UniProt P00519); type: functional
[21] = molecular target: Dual specificity tyrosine-phosphorylation-regulated kinase 1A (Homo sapiens, UniProt Q13627); type: functional;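 further: measured against DYRK1A as one member of a broad kinome profiling panel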
[22] = molecular target: Serine/threonine-protein kinase pim-2 (Homo sapiens, UniProt Q9P1W9); type: functional;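 further: value comes from a broad kinase panel profiling study in which PIM2 was one of the panel members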
[23] = molecular target: Fibroblast growth factor receptor 3 (Homo sapiens, UniProt P22607); type: functional
Fibroblast growth factor receptor 3, sequence (P22607 whole entry): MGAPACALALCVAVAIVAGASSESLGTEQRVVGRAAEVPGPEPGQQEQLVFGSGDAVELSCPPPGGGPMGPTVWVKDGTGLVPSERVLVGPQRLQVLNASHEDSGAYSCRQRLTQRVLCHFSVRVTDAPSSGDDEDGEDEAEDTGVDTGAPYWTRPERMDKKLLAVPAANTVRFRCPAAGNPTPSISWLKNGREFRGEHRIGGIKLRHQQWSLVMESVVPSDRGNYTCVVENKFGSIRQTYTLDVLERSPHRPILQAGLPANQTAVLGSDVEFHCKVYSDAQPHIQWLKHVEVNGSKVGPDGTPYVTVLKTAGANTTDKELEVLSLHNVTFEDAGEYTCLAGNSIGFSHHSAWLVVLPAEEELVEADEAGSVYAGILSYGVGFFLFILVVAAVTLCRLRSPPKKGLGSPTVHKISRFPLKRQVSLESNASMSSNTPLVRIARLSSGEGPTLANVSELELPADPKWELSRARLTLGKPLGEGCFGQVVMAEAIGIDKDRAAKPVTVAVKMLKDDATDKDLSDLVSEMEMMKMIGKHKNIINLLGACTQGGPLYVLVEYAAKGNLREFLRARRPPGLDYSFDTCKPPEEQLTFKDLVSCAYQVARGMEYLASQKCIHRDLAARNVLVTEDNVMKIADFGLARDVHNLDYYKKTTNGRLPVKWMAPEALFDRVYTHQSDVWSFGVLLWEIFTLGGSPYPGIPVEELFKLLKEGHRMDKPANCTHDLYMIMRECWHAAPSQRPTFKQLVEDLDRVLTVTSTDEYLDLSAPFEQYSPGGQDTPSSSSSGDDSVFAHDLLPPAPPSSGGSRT

Nonstructural protein 1 = Nonstructural protein 1 (Influenza A virus, UniProt Q194T2); type: functional, Influenza A virus (A/California/07/2009(H1N1))
Nonstructural protein 1, sequence (Q194T2 whole entry): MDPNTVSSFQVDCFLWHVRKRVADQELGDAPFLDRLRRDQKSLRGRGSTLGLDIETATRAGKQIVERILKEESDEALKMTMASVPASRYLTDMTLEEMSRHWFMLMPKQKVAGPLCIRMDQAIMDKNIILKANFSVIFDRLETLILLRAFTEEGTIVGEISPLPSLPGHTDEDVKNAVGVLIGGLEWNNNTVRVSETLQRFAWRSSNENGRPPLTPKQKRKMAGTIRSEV

## CC(=O)N(C1=C(Cl)C(=O)c2ccccc2C1=O)C1CCCCC1
[1]
  AC50: 524 nM (active)
[2]
  IC50: 9500 nM (active)
Vero
  CC50: 22400 nM (active)
[3]
  AC50: 21500 nM (active)
Fatty acid synthase
  IC50: 3020 nM (active)
Hexokinase HKDC1
  IC50: 7150 nM (active)

## Oc1ccc(-c2cn3c(n2)SCC3)cc1O
Bcl-2-like protein 10
  IC50: 79100 nM (inactive)
Aspartyl aminopeptidase
  IC50: 1550 nM (active)

## O=C1Nc2ccc3ncsc3c2C1=CNc1ccc(S(=O)(=O)Nc2ccccn2)cc1
[4]
  Ki: 316 nM (active)
[5]
  Ki: > 10000 nM (inactive)
[6]
  Ki: 25.1 nM (active)
[7]
  Ki: > 2000 nM (inactive)
Ephrin type-A receptor 2
  Ki: 794 nM (active)
[8]
  Ki: 3.98 nM (active)
[9]
  Ki: 251 nM (active)
[10]
  Ki: 126 nM (active)
[11]
  Ki: 1260 nM (active)
[12]
  Ki: 50.1 nM (active)
[13]
  Ki: > 1580 nM (inactive)
[14]
  Ki: 200 nM (active)
[15]
  Ki: 79.4 nM (active)
[16]
  Ki: 398 nM (active)
[17]
  Ki: > 2000 nM (inactive)
[18]
  Ki: 158 nM (active)
[19]
  Ki: 1260 nM (active)
[20]
  Ki: > 631 nM (inactive)
[21]
  Ki: 7.94 nM (active)
[22]
  Ki: 1000 nM (active)
[23]
  Ki: 12.6 nM (active)

## Cc1ccc(NC2=C/C(=N\S(=O)(=O)c3cccs3)c3ccccc3C2=O)c(C)c1
Nonstructural protein 1
  IC50: 6480 nM (active)
